PMC3024946, “Hydroxyproline-containing collagen analogs trigger the release and activation of collagen-sequestered proMMP-2 by competition with prodomain-derived peptide P33-42” (Fibrogenesis & Tissue Repair, 2011)

Legend:
proMMP-9 / CI [1] = molecular target: T1, proMMP-9 / CI (Homo sapiens, UniProt P14780); test: SPR, competition of proMMP-9 binding to CI, MMP activity buffer; conditions: proMMP-9 (25-150 nM), 10-fold molar excess
T1 construct: prodomain-containing proMMP-2 or proMMP-9; purchased Invitek
T1 sequence (P14780 20-707 limits assumed): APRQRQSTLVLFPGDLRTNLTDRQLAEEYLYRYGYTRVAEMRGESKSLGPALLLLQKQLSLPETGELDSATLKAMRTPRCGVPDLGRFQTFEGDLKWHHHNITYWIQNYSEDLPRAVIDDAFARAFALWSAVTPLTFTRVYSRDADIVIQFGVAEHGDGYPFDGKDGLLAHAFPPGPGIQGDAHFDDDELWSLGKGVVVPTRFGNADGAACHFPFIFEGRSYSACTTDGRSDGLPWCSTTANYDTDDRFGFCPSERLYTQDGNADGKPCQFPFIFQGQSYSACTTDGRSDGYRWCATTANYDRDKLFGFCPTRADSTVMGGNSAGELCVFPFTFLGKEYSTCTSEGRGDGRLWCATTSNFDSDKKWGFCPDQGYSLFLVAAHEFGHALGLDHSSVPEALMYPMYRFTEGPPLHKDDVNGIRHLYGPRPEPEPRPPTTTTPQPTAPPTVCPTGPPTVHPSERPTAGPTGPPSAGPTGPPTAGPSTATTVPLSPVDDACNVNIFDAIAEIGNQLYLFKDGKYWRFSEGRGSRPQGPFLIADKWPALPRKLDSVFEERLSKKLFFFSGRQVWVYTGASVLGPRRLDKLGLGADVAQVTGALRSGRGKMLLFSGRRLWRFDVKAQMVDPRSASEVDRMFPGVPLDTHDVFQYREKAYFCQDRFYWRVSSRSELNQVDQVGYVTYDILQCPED
Protocol: (§1) Sensor chip preparations and SPR measurements were performed using a BiacoreX device and the Bia-evaluation software (version 3.2; Biacore, Uppsala, Sweden). The pepsin-resistant triple-helical part of human fibrillar CI (100 μg/ml) in 10 mM acetate coupling buffer, pH 4.8, was immobilized to a dextran matrix-sensor chip at a flow rate of 5 μl/min, resulting in 5,500 resonance units from CI covalently linked via its primary amino groups. The control flow cell was prepared using the coupling buffer without CI. Surfaces were activated and blocked as described previously. […] The effects of (GPO)10, GAP, (POG)5, (GPP)10 and P33-42 on MMP-2 and MMP-9 binding to CI and their enzymatic activity were determined by adding the binding competitors to the (pro- and act)MMP-2 and MMP-9 solution in 10- to 150-fold molar excesses. Effects independent of MMP-2 and MMP-9 activity were monitored in the presence of Ro 28-2653 (1 μM) during SPR analysis. […] Kinetic parameters were analyzed using the 1:1 binding model with drifting baseline and subtraction of the control flow cell binding from sensorgrams obtained with immobilized CI. Binding constants (Kd) were calculated from the association (ka) and dissociation rates (kd) obtained from individual binding curves at different concentrations. […]

proMMP-9 / CI [2] = molecular target: T1, proMMP-9 / CI; test: SPR, competition of proMMP-9 binding to CI, nonactivating buffer
Protocol: as §1

actMMP-2 / CI [3] = molecular target: T2, actMMP-2 / CI (Homo sapiens, UniProt P08253); test: SPR, competition of actMMP-2 binding to CI, MMP activity buffer with Ro 28-2653; conditions: actMMP-2 100 nM, 1 μM Ro 28-2653, 25°C, mean ± SD, at least three experiments
T2 construct: purchased Invitek
T2 sequence (P08253 110-660): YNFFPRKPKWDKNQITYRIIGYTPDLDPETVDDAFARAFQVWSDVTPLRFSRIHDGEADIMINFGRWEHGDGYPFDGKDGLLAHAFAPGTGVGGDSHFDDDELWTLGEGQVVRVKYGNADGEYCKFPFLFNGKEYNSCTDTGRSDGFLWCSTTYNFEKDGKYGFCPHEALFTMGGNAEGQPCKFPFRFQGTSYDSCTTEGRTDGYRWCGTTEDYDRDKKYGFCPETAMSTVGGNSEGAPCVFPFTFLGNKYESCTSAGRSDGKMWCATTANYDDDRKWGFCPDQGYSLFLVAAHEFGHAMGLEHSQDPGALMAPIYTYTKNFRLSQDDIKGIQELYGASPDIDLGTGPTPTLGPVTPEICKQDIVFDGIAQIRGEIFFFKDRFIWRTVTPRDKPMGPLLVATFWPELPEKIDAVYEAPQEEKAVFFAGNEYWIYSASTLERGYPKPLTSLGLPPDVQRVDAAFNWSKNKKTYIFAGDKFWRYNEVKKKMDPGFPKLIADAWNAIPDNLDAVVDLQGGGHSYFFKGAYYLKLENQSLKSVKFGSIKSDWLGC
Protocol: as §1

actMMP-2 / CI [4] = molecular target: T2, actMMP-2 / CI; test: SPR, competition of actMMP-2 binding to CI, nonactivating buffer
Protocol: as §1

proMMP-2 / CI = molecular target: T3, proMMP-2 / CI (Homo sapiens, UniProt P08253); test: SPR, competition of proMMP-2 binding to CI, MMP activity buffer; conditions: proMMP-2 (25-150 nM), 10-fold molar excess, no inhibitor
T3 construct: prodomain-containing proMMP-2 or proMMP-9; purchased Invitek
T3 sequence (P08253 30-660 limits assumed): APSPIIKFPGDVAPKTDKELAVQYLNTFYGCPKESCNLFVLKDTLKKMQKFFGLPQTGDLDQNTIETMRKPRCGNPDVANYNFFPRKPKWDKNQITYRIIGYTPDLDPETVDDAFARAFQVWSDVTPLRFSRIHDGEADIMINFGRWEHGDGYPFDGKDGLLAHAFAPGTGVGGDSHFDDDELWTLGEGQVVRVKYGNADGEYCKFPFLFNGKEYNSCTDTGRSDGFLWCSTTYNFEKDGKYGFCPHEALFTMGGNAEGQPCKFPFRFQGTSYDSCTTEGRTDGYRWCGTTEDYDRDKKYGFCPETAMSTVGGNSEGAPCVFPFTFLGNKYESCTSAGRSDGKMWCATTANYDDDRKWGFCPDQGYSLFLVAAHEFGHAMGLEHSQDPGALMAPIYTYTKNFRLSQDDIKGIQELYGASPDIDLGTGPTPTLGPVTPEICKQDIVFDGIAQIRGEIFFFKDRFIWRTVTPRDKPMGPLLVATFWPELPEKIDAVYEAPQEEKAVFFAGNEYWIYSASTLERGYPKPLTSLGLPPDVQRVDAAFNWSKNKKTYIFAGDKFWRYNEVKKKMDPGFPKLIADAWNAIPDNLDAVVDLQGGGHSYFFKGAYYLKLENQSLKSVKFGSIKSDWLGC
Protocol: as §1

- effect on binding to CI (proMMP-9 / CI [1]): abolished binding of proMMP-9 to CI
- Off rate (proMMP-9 / CI [2]; proMMP-9 (100 nM) binding to CI with 10× (GPO)10, PBS, 0.05% Tween 20): 0.22 s⁻¹
- effect on binding to CI (proMMP-9 / CI [2]; proMMP-9, 10-fold molar excess): more pronounced effects
- Kd for binding to CI in the presence of 10-fold molar excess of competitor (actMMP-2 / CI [3]): 2,710.0 ± 90.0 nM
- Off rate (actMMP-2 / CI [4]; actMMP-2 (100 nM) binding to CI with 10× (GPO)10, PBS, 0.05% Tween 20): 0.56 s⁻¹
- effect on binding to CI (actMMP-2 / CI [4]; actMMP-2, 10-fold molar excess): only slightly impaired
Substance: H-Gly-Cys-Hyp-(Gly-Pro-Hyp)10-Gly-Cys-Hyp-Gly-NH2 [(GPO)10, triple-helical Hyp-containing collagen analog]
- effect on SPR signal on CI (proMMP-2 / CI): reduction in resonance units below baseline levels
